Results published in PMC6732734 (Heliyon, 2019).

Experiment: In vivo gentamicin release / pharmacokinetics after tail vein injection
Set-up: species or system Wistar rats
Details: rat

Structure (SMILES): CNC(C)C1CCC(N)C(OC2C(N)CC(N)C(OC3OCC(C)(O)C(NC)C3O)C2O)O1 (stereo not drawn) [Pure drug, Gentamicin]
- AUC(0-inf) (male, Wistar, plasma, iv, 2 mg): 203 µg·h/mL
- Cmax (male, Wistar, plasma, iv, 2 mg): 8400 ng/mL
- Tmax (male, Wistar, plasma, iv, 2 mg): 1 h
- Vd (male, Wistar, plasma, iv, 2 mg): 0.1 L/kg
- clearance (male, Wistar, plasma, iv, 2 mg): 5 mL/h/kg
- time up to which gentamicin was detectable in the plasma (intravenous): up to 6 h
